Test results published in a compilation of properties of binary mixtures (doi:10.1016/j.molliq.2010.03.018).

Assay: xn = mol fraction of the nth substance listed
Details: 101 kPa

COCC(C)O (stereo not drawn) + CCCC[n+]1ccn(C)c1.F[P-](F)(F)(F)(F)F
speed of sound [m/s]
Details	x1 = 0.0426	x1 = 0.126	x1 = 0.2396	x1 = 0.4116	x1 = 0.5071	x1 = 0.6847	x1 = 0.8536	x1 = 0.9447
288.15 K	1464.5	1458.3	1449.3	–	1420.4	1390.4	–	1322.3
298.15 K	1439.7	1433.7	1424.6	–	1393.6	1360.9	1316.9	1286.9
308.15 K	1416.2	–	1400.6	1381.5	1367.3	1331.8	–	1251.5

COCCOCCO + CCCC[n+]1ccn(C)c1.F[P-](F)(F)(F)(F)F
speed of sound [m/s]
Details	x1 = 0.1008	x1 = 0.2217	x1 = 0.3398	x1 = 0.4582	x1 = 0.519	x1 = 0.6876	x1 = 0.8005	x1 = 0.8758	x1 = 0.9136
288.15 K	–	1469	1473	1478.1	1480.6	1484.3	–	–	1474.1
298.15 K	1443.7	–	1448	1452.2	–	1455.5	1451.5	1445.7	1441.7
308.15 K	1420.3	1420.8	1423.5	1426.6	1427.8	–	–	1414.2	1409.4

CCOCC(C)O (stereo not drawn) + CCCC[n+]1ccn(C)c1.F[P-](F)(F)(F)(F)F
speed of sound [m/s]
Details	x1 = 0.0532	x1 = 0.172	x1 = 0.255	x1 = 0.3298	x1 = 0.5031	x1 = 0.6555	x1 = 0.8423	x1 = 0.9	x1 = 0.9474
288.15 K	1462	1449.6	1437.8	–	1390.7	–	–	–	–
298.15 K	1437	1424.7	1412.6	1399.7	1363.1	1325.5	–	1260.4	1247.7
308.15 K	1414.1	1400.1	–	1374.8	1336.2	1296	1242.1	1225.4	–
